In patent US20230399312A1, “SUBSTITUTED PYRIMIDINES AND METHODS OF USE” (THERAVANCE BIOPHARMA R&D IP, LLC, priority 2020, published 2023):

What was measured:
[1] = test system: TGF-β-stimulated SMAD3 phosphorylation in BEAS-2B cells; experiment: Cellular ALK5 potency assay, inhibition of TGF-β stimulated pSMAD3 formation in BEAS-2B cells; type: cell-based; details: Homo sapiens, pSMAD3, TGF-β 10 ng/mL, read-out: BEAS2B pIC50 (converted)
Method in brief: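 Human lung epithelial BEAS-2B cells were preincubated 1 h at 37 °C with compound in HBSS/HEPES/1% BSA, then stimulated 30 min with 10 ng/mL TGF-β. pSMAD3 in lysates was quantified by AlphaLISA relative to untreated stimulated cells; reported as pIC50.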

[2] = biological target: T1, recombinant human ALK5 (TGF-βR1) protein (Homo sapiens, UniProt P36897); experiment: Biochemical ALK5 (TGF-βR1) assay to measure pKi (LANCE Ultra ULight kinase assay); details: apparent pKi, converted from pIC50 by Cheng-Prusoff
T1 construct: purchased Life Technologies PR9075A
T1 sequence (P36897 34-503): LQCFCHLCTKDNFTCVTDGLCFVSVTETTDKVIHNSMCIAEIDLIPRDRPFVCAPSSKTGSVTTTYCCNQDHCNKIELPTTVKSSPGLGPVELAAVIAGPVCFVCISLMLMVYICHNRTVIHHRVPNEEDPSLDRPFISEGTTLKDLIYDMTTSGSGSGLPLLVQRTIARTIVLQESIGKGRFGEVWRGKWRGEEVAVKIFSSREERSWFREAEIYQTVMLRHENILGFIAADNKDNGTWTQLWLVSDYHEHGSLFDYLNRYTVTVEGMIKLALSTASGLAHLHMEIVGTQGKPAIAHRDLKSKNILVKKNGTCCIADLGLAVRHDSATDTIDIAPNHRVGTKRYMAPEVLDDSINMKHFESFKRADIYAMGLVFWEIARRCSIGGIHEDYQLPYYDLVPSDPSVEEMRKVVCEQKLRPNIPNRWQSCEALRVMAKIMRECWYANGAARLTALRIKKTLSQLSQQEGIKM
Method in brief: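 Dose-response series of each compound were preincubated with the kinase for 60 minutes at room temperature. Phosphorylation proceeded for 60 minutes at 37 °C after ATP addition, was quenched with EDTA, and was detected with a europium anti-phospho-Thr1342 antibody by TR-FRET; pKi was calculated from pIC50.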

Ki [2] | Compound | IC50 [1]
3.98 to 31.6 nM | Cc1cccc(-c2nccc(Nc3ccnc(Nc4ncc(C(=O)OC[C@H]5CCCCN5)s4)n3)n2)n1 [Compound 578, [(2R)-2-piperidyl]methyl 2-[[4-[[2-(6-methyl-2-pyridyl)pyrimidin-4-yl]amino]pyrimidin-2-yl]amino]thiazole-5-carboxylate] | 200 to 1260 nM
3.98 to 31.6 nM | Cc1cccc(-c2nccc(Nc3ccnc(Nc4cc(C(=O)OC5CNC5)ccn4)n3)n2)n1 [Compound 579, azetidin-3-yl 2-[[4-[[2-(6-methyl-2-pyridyl)pyrimidin-4-yl]amino]pyrimidin-2-yl]amino]pyridine-4-carboxylate] | 25.1 to 158 nM
0.398 to 3.16 nM | Cc1cccc(-c2nccc(Nc3ccnc(Nc4nc(C(=O)OC[C@@H]5CCCNC5)cs4)n3)n2)n1 [Compound 580, [(3R)-3-piperidyl]methyl 2-[[4-[[2-(6-methyl-2-pyridyl)pyrimidin-4-yl]amino]pyrimidin-2-yl]amino]thiazole-4-carboxylate] | 200 to 1260 nM
3.98 to 31.6 nM | Cc1cccc(-c2nccc(Nc3ccnc(Nc4ccc(C(=O)OCCN5CCNCC5)cn4)n3)n2)n1 [Compound 581, 2-piperazin-1-ylethyl 6-[[4-[[2-(6-methyl-2-pyridyl)pyrimidin-4-yl]amino]pyrimidin-2-yl]amino]pyridine-3-carboxylate] | 25.1 to 158 nM
0.0398 to 0.316 nM | Cc1cccc(-c2nccc(Nc3ccnc(Nc4ccc(C(=O)OC[C@H]5CCNC5)nc4)n3)n2)n1 [Compound 582, [(3S)-pyrrolidin-3-yl]methyl 5-[[4-[[2-(6-methyl-2-pyridyl)pyrimidin-4-yl]amino]pyrimidin-2-yl]amino]pyridine-2-carboxylate] | 25.1 to 158 nM
0.0398 to 0.316 nM | Cc1cccc(-c2nccc(Nc3ccnc(Nc4csc(C(=O)OC[C@H]5CCCN5)c4)n3)n2)n1 [Compound 583, [(2R)-pyrrolidin-2-yl]methyl 4-[[4-[[2-(6-methyl-2-pyridyl)pyrimidin-4-yl]amino]pyrimidin-2-yl]amino]thiophene-2-carboxylate] | 25.1 to 158 nM
0.0398 to 0.316 nM | Cc1cccc(-c2nccc(Nc3ccnc(Nc4ccc(C(=O)OC[C@@H]5CCNC5)nc4)n3)n2)n1 [Compound 584, [(3R)-pyrrolidin-3-yl]methyl 5-[[4-[[2-(6-methyl-2-pyridyl)pyrimidin-4-yl]amino]pyrimidin-2-yl]amino]pyridine-2-carboxylate] | 25.1 to 158 nM
3.98 to 31.6 nM | Cc1cccc(-c2nccc(Nc3ccnc(Nc4csc(C(=O)O)n4)n3)n2)n1 [Compound 585, 4-[[4-[[2-(6-methyl-2-pyridyl)pyrimidin-4-yl]amino]pyrimidin-2-yl]amino]thiazole-2-carboxylic acid] | 200 to 1260 nM
0.398 to 3.16 nM | Cc1cccc(-c2nccc(Nc3ccnc(Nc4nc(C(=O)OC[C@H]5CCCCN5)cs4)n3)n2)n1 [Compound 586, [(2R)-2-piperidyl]methyl 2-[[4-[[2-(6-methyl-2-pyridyl)pyrimidin-4-yl]amino]pyrimidin-2-yl]amino]thiazole-4-carboxylate] | 25.1 to 158 nM
0.0398 to 0.316 nM | Cc1cccc(-c2nccc(Nc3ccnc(Nc4ccc(C(=O)OCC5CCNCC5)nc4)n3)n2)n1 [Compound 587, 4-piperidylmethyl 5-[[4-[[2-(6-methyl-2-pyridyl)pyrimidin-4-yl]amino]pyrimidin-2-yl]amino]pyridine-2-carboxylate] | 25.1 to 158 nM
0.0398 to 0.316 nM | Cc1cccc(-c2nccc(Nc3ccnc(Nc4csc(C(=O)OC[C@H]5CCCCN5)c4)n3)n2)n1 [Compound 588, [(2R)-2-piperidyl]methyl 4-[[4-[[2-(6-methyl-2-pyridyl)pyrimidin-4-yl]amino]pyrimidin-2-yl]amino]thiophene-2-carboxylate] | 25.1 to 158 nM
0.398 to 3.16 nM | Cc1cccc(-c2nccc(Nc3ccnc(Nc4ccc(C(=O)OCCN5C[C@@H](C)N[C@@H](C)C5)nc4)n3)n2)n1 [Compound 589, 2-[(3R,5S)-3,5-dimethylpiperazin-1-yl]ethyl 5-[[4-[[2-(6-methyl-2-pyridyl)pyrimidin-4-yl]amino]pyrimidin-2-yl]amino]pyridine-2-carboxylate] | 25.1 to 158 nM
0.0398 to 0.316 nM | Cc1cccc(-c2nccc(Nc3ccnc(Nc4csc(C(=O)OC[C@H]5CC[C@H](N)CC5)c4)n3)n2)n1 [Compound 590, (4-aminocyclohexyl)methyl 4-[[4-[[2-(6-methyl-2-pyridyl)pyrimidin-4-yl]amino]pyrimidin-2-yl]amino]thiophene-2-carboxylate] | 25.1 to 158 nM
0.0398 to 0.316 nM | Cc1cccc(-c2nccc(Nc3ccnc(Nc4csc(C(=O)OC5CCNCC5)c4)n3)n2)n1 [Compound 591, 4-piperidyl 4-[[4-[[2-(6-methyl-2-pyridyl)pyrimidin-4-yl]amino]pyrimidin-2-yl]amino]thiophene-2-carboxylate] | 25.1 to 158 nM
3.98 to 31.6 nM | Cc1cccc(-c2nccc(Nc3ccnc(Nc4ncc(C(=O)OC[C@H]5CCCN5)s4)n3)n2)n1 [Compound 592, [(2R)-pyrrolidin-2-yl]methyl 2-[[4-[[2-(6-methyl-2-pyridyl)pyrimidin-4-yl]amino]pyrimidin-2-yl]amino]thiazole-5-carboxylate] | 25.1 to 158 nM
0.398 to 3.16 nM | Cc1cccc(-c2nccc(Nc3ccnc(Nc4nc(C(=O)OC[C@H]5CCCN5)cs4)n3)n2)n1 [Compound 593, [(2R)-pyrrolidin-2-yl]methyl 2-[[4-[[2-(6-methyl-2-pyridyl)pyrimidin-4-yl]amino]pyrimidin-2-yl]amino]thiazole-4-carboxylate] | 25.1 to 158 nM
0.0398 to 0.316 nM | Cc1cccc(-c2nccc(Nc3ccnc(Nc4ccc(C(=O)O[C@@H]5CCCNC5)nc4)n3)n2)n1 [Compound 594, [(3R)-3-piperidyl] 5-[[4-[[2-(6-methyl-2-pyridyl)pyrimidin-4-yl]amino]pyrimidin-2-yl]amino]pyridine-2-carboxylate] | 200 to 1260 nM
0.398 to 3.16 nM | Cc1cccc(-c2nccc(Nc3ccnc(Nc4cncc(C(=O)OC[C@@H]5CCCNC5)c4)n3)n2)n1 [Compound 595] | 25.1 to 158 nM
0.0398 to 0.316 nM | Cc1cccc(-c2nccc(Nc3ccnc(Nc4ccc(C(=O)OC5CCCNCC5)nc4)n3)n2)n1 (stereo not shown) [Compound 596, azepan-4-yl 5-[[4-[[2-(6-methyl-2-pyridyl)pyrimidin-4-yl]amino]pyrimidin-2-yl]amino]pyridine-2-carboxylate] | 200 to 1260 nM
0.0398 to 0.316 nM | Cc1cccc(-c2nccc(Nc3ccnc(Nc4ccc(C(=O)OC[C@@H]5CCCCN5)nc4)n3)n2)n1 [Compound 597, [(2S)-2-piperidyl]methyl 5-[[4-[[2-(6-methyl-2-pyridyl)pyrimidin-4-yl]amino]pyrimidin-2-yl]amino]pyridine-2-carboxylate] | 25.1 to 158 nM
0.0398 to 0.316 nM | Cc1cccc(-c2nccc(Nc3ccnc(Nc4csc(C(=O)OCCN5CCC[C@@H](N)C5)c4)n3)n2)n1 [Compound 598, 2-[(3R)-3-amino-1-piperidyl]ethyl 4-[[4-[[2-(6-methyl-2-pyridyl)pyrimidin-4-yl]amino]pyrimidin-2-yl]amino]thiophene-2-carboxylate] | 25.1 to 158 nM
0.0398 to 0.316 nM | Cc1cccc(-c2nccc(Nc3ccnc(Nc4csc(C(=O)OCCN5CCN6CCCC6C5)c4)n3)n2)n1 (stereo not shown) [Compound 599, 2-(3,4,6,7,8,8a-hexahydro-1H-pyrrolo[1,2-a]pyrazin-2-yl)ethyl 4-[[4-[[2-(6-methyl-2-pyridyl)pyrimidin-4-yl]amino]pyrimidin-2-yl]amino]thiophene-2-carboxylate] | 25.1 to 158 nM
0.0398 to 0.316 nM | Cc1cccc(-c2nccc(Nc3ccnc(Nc4csc(C(=O)OC[C@H]5CCCNC5)c4)n3)n2)n1 [Compound 600, [(3S)-3-piperidyl]methyl 4-[[4-[[2-(6-methyl-2-pyridyl)pyrimidin-4-yl]amino]pyrimidin-2-yl]amino]thiophene-2-carboxylate] | 25.1 to 158 nM
3.98 to 31.6 nM | Cc1cccc(-c2nccc(Nc3ccnc(Nc4cc(C(=O)O[C@@H]5CCNC5)ccn4)n3)n2)n1 [Compound 601, [(3R)-pyrrolidin-3-yl] 2-[[4-[[2-(6-methyl-2-pyridyl)pyrimidin-4-yl]amino]pyrimidin-2-yl]amino]pyridine-4-carboxylate] | 200 to 1260 nM
0.0398 to 0.316 nM | Cc1cccc(-c2nccc(Nc3ccnc(Nc4csc(C(=O)OCCC5CNC5)c4)n3)n2)n1 [Compound 602, 2-(azetidin-3-yl)ethyl 4-[[4-[[2-(6-methyl-2-pyridyl)pyrimidin-4-yl]amino]pyrimidin-2-yl]amino]thiophene-2-carboxylate] | 25.1 to 158 nM
0.0398 to 0.316 nM | Cc1cccc(-c2nccc(Nc3ccnc(Nc4cncc(CN5CC(C(=O)O)C5)c4)n3)n2)n1 [Compound 603, 1-[[5-[[4-[[2-(6-methyl-2-pyridyl)pyrimidin-4-yl]amino]pyrimidin-2-yl]amino]-3-pyridyl]methyl]azetidine-3-carboxylic acid] | 1580 to 10000 nM
